Laboratory results from ChEMBL document CHEMBL1128038, “Acyl CoA:cholesterol acyltransferase (ACAT) inhibitors: ureas bearing heterocyclic groups bioisosteric for an imidazole” (Bioorg Med Chem Lett, 1995).
pIC50: −log10 of the molar value.

How the values were obtained:
[1] = Partition coefficient (logP); assay type: physicochemical; conditions: octanol/water
[2] = target: T1, Sterol O-acyltransferase 1 (Rattus norvegicus, UniProt O70536); test: In vitro inhibition of acyl coenzyme A:cholesterol acyltransferase (ACAT) in rat hepatic microsomes by using AIV assay.; set-up: species or system Liver; conditions: for pIC50: read-out: IC50
T1 sequence (O70536 whole entry): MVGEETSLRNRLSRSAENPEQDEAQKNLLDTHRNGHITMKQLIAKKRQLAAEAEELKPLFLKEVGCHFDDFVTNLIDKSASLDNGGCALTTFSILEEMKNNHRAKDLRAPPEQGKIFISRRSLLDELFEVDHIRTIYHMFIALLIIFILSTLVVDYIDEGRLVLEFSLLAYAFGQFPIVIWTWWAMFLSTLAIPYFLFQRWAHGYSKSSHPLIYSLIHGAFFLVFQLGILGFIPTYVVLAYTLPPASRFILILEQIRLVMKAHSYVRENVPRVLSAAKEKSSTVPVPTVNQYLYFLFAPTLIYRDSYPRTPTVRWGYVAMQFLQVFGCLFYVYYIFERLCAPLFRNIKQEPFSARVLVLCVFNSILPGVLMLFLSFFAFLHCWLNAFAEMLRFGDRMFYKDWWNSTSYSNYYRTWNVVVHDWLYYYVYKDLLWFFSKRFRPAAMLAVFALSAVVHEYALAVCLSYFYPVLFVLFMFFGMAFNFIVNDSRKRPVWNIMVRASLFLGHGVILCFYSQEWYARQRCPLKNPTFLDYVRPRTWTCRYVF

[3] = target: T2, Sterol O-acyltransferase 1 (Mus musculus, UniProt Q61263); test: Inhibition of Acyl coenzyme A:cholesterol acyltransferase (ACAT) in J774 Macrophage cell culture was measured by using J774 assay; IA means inactive; assay type: cell-based
T2 sequence (Q61263 whole entry): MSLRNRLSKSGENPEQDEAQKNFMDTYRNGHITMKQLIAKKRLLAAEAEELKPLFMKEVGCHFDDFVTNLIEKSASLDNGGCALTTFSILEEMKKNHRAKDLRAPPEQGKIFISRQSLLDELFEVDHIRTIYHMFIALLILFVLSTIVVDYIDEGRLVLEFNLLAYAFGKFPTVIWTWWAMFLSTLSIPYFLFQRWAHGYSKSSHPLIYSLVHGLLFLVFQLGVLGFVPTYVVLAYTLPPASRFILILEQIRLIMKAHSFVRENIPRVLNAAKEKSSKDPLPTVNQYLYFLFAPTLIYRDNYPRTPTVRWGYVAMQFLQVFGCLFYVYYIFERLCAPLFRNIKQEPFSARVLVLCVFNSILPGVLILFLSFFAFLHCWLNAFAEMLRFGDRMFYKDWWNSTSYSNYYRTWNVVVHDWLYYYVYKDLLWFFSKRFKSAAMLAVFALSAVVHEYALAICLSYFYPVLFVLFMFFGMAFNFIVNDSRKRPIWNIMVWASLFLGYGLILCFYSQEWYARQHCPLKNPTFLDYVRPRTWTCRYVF

[4] = target: T2, Sterol O-acyltransferase 1; test: Inhibition of acyl coenzyme A:cholesterol acyltransferase (ACAT) in J774 Macrophage cell culture by using J774 assay.; assay type: cell-based
[5] = target: T1, Sterol O-acyltransferase 1; test: In vitro inhibition of Acyl coenzyme A:cholesterol acyltransferase (ACAT) in rat hepatic microsomes was measured by using AIV assay; IA means the compound was inactive; set-up: species or system Liver
[6] = target: T1, Sterol O-acyltransferase 1; test: In vitro inhibition of ACYL CoA:Cholesterol Acyltransferase (ACAT) in rat hepatic microsomes was measured by using AIV assay; set-up: species or system Liver
[7] = target: T2, Sterol O-acyltransferase 1; test: Inhibition of Acyl coenzyme A:cholesterol acyltransferase (ACAT) in J774 Macrophage cell culture was measured by using J774 assay; IA means the compound was inactive; assay type: cell-based

SMILES | logP [1] | pIC50 [2] | pIC50 [4] | other results
CCCCCCN(CCCCCSc1nc2c[nH]cnc-2n1)C(=O)Nc1ccc(F)cc1F | 5.26 | 6.07 | – | IC50 [3]: Not Active
CCCCCCN(CCCCCSc1nc2c(=O)n(C)c(=O)n(C)c2[nH]1)C(=O)NC(C)C | 5.1 | 5.44 | 5.82 | –
CCCCCCCN(CCCCCSc1nc(O)cc(Cc2ccccc2)n1)C(=O)NC(C)C | 7.4 | 5.04 | 4.60 | –
CCCCCCCN(CCCCCSc1nc(-c2ccccc2)c(-c2ccccc2)n1C)C(=O)Nc1ccc(F)cc1F | – | – | 5.42 | –
CCCCCCN(CCCCCSc1nc2cc(OCC)ccc2s1)C(=O)Nc1ccc(F)cc1F | 8.46 | – | 5.34 | IC50 [5]: Not Active
CCCCCCN(CCCCCSc1nc2ccc[nH]c-2n1)C(=O)NC(C)C | 5.62 | 5.15 | 5.15 | –
CCCCCCCN(CCCCCSC1N=C(c2ccccc2)c2ccccc2NC1=O)C(=O)NC(C)C (stereo not drawn) | 6.99 | – | 5.19 | –
CCCCCCCN(CCCCCSc1nc(N)cc(O)n1)C(=O)NC(C)C | 5.61 | 4.13 | 5.03 | –
CCCCCCCN(CCCCCSc1ncc[nH]1)C(=O)Nc1ccc(F)cc1F | – | – | 5.26 | –
CCCCCCCN(CCCCCSc1[nH]cnc2ncnc1-2)C(=O)NC(C)C | 4.72 | 4.53 | 5.33 | –
CCCCCCCN(CCCCCSc1n[nH]c(-c2ccccc2)n1)C(=O)Nc1ccc(F)cc1F | 6.78 | 5.40 | 5.38 | –
CCCCCCCN(CCCCCSc1ccccn1)C(=O)Nc1ccc(F)cc1F | 6.41 | 5.40 | 5.35 | –
CCCCCCN(CCCCCSc1nc2cc([N+](=O)[O-])ccc2[nH]1)C(=O)Nc1ccc(F)cc1F | 7.19 | 5.70 | 5.08 | –
CCCCCCCN(CCCCCOC1=NC(S)=NC1(c1ccccc1)c1ccccc1)C(=O)NC(C)C | – | – | 5.55 | pIC50 [6]: 7.05
CCCCCCCN(CCCCCSc1nnc(-c2ccccc2)c(-c2ccccc2)n1)C(=O)Nc1ccc(F)cc1F | 8.72 | 6.36 | 4.97 | –
CCCCCCCN(CCCCCSc1nc(-c2ccccc2)c[nH]1)C(=O)Nc1ccc(F)cc1F | – | – | 5.80 | –
CCCCCCCN(CCCCCSc1nc(-c2ccccc2)cn1-c1ccccc1)C(=O)Nc1ccc(F)cc1F | – | 5.14 | 5.22 | –
CCCCCCN(CCCCCSc1nc2ccccc2s1)C(=O)Nc1ccc(F)cc1F | 7.78 | 5.40 | 5.56 | –
CCCCCCN(CCCCCSc1nc2cc(C)ccc2[nH]1)C(=O)Nc1ccc(F)cc1F | 7.79 | 6.00 | 5.69 | –
CCCCCCN(CCOCCSc1nc2c[nH]cnc-2n1)C(=O)Nc1ccc(F)cc1F | 4.32 | – | – | IC50 [2]: Not Active

SMILES | logP [1] | pIC50 [2] | pIC50 [4] | other results
CCCCCCN(CCCCCSc1nc2ccccc2o1)C(=O)Nc1ccc(F)cc1F | 7.18 | 4.29 | 5.46 | –
CCCCCCCN(CCCCCSc1nc(N)c2c[nH]nc2n1)C(=O)NC(C)C | 5.14 | – | – | IC50 [2]: Not Active; IC50 [7]: Not Active
CCCCCCCN(CCCCCSc1ncccn1)C(=O)Nc1ccc(F)cc1F | 5.41 | 5.48 | 5.36 | –
CCCCCCCN(CCCCCSc1nnc(-c2ccccc2)n1-c1ccccc1)C(=O)Nc1ccc(F)cc1F | 8.64 | 4.72 | 5.32 | –
CCCCCCN(CCCCCSc1nc2ccc[nH]c-2n1)C(=O)Nc1ccc(F)cc1F | 6.22 | 5.44 | 5.26 | –
CCCCCCN(CCCCCSc1nc2ccccc2[nH]1)C(=O)Nc1ccc(F)cc1F | 7.29 | 6.30 | 5.51 | –
CCCCCCCN(CCCCCSC1N=C(c2ccccc2)c2ccccc2NC1=O)C(=O)Nc1ccc(F)cc1F (stereo not drawn) | 7.59 | – | 5.16 | –
CCCCCCCN(CCCCCSc1nc[nH]n1)C(=O)Nc1ccc(F)cc1F | – | 5.30 | 4.56 | –
CCCCCCCN(CCCCCSc1nc(N)c2c[nH]nc2n1)C(=O)Nc1ccc(F)cc1F | 5.74 | 5.37 | 4.14 | –
CCCCCCN(CCCCCSc1nc2c([nH]1)CCCC2)C(=O)Nc1ccc(F)cc1F | 6.81 | 6.09 | 5.59 | –
CCCCCCN(CCCCCSc1nc2ccccc2n1C)C(=O)Nc1ccc(F)cc1F | 7.47 | 5.60 | 5.52 | –
CCCCCCCN(CCCCCSc1nc(-c2ccccc2)c(-c2ccccc2)n1-c1ccccc1)C(=O)Nc1ccc(F)cc1F | – | – | 4.26 | IC50 [2]: Not Active
CCCCCCCN(CCCCCSC1=NC(=O)C(c2ccccc2)(c2ccccc2)N1)C(=O)NC(C)C | – | 5.55 | 5.67 | –
CCCCCCCN(CCCCCSc1[nH]cnc2nncc1-2)C(=O)NC(C)C | 5 | 5.15 | 5.36 | –
CCCCCCN(CCCCCSc1nc2c[nH]cnc-2n1)C(=O)NC(C)C | 4.66 | 4.63 | 4.72 | –
CCCCCCN(CCOCCSc1nc2c[nH]cnc-2n1)C(=O)NC(C)C | 3.72 | 5.70 | 4.22 | –
CCCCCCCN(CCCCCSc1[nH]cnc2ncnc1-2)C(=O)Nc1ccc(F)cc1F | 5.32 | 6.70 | 5.27 | –
CCCCCCCN(CCCCCSc1nc(O)c2ccccc2n1)C(=O)Nc1ccc(F)cc1F | 6.17 | 5.40 | 4.96 | –
CCCCCCCN(CCCCCSc1[nH]cnc2nncc1-2)C(=O)Nc1ccc(F)cc1F | 5.6 | 6.15 | 5.48 | –
